Laboratory results published in patent US11547702B2, “Use of amlexanox” (SHANGHAI MICROPORT MEDICAL (GROUP) CO., LTD., priority 2016, dated 2023).

Key:
[1] = tested on: Human Aortic Smooth Muscle Cells (HASMCs); experiment: In vitro cell proliferation test (MTT colorimetry), smooth muscle cells; conditions: 72 hours, based on the control group, average of 6 tests
[2] = tested on: Human Aortic Endothelial Cells (HAECs); experiment: In vitro cell proliferation test (MTT colorimetry), endothelial cells; conditions: 72 hours, based on the control group, average of 6 tests
[3] = 1 μmol of each drug in culture medium
[4] = 6 μmol of each drug in culture medium
[5] = 10 μmol of each drug in culture medium

| SMILES | Smooth muscle cell inhibition rate (%) [1, 3] [%] | Smooth muscle cell inhibition rate (%) [1, 4] [%] | Smooth muscle cell inhibition rate (%) [1, 5] [%] | Endothelial cell inhibition rate (%) [2, 3] [%] | Endothelial cell inhibition rate (%) [2, 4] [%] | Endothelial cell inhibition rate (%) [2, 5] [%] |
| --- | --- | --- | --- | --- | --- | --- |
| CC(C)c1ccc2oc3nc(N)c(C(=O)O)cc3c(=O)c2c1 [Amlexanox, 2-amimo-7-isopropyl-5-oxo-5H-[1]benzopyrano-[2,3,-b]pyridine-3-carboxylic acid] | 11.6 | 19.0 | 23.4 | 0.9 | 2.8 | 3.5 |
| CO[C@H]1C[C@@H]2CC[C@@H](C)[C@@](O)(O2)C(=O)C(=O)N2CCCC[C@H]2C(=O)O[C@H]([C@H](C)C[C@@H]2CC[C@@H](O)[C@H](OC)C2)CC(=O)[C@H](C)/C=C(\C)[C@@H](O)[C@@H](OC)C(=O)[C@H](C)C[C@H](C)/C=C/C=C/C=C/1C [Rapamycin, rapamycin] | 9.1 | 18.9 |  | 7.7 | 16.0 | 21.8 |
